Results from publication PMC10539439 (Pharmacological Reports, 2023).
“And” between values parts separate entries of the source, which are not always exact repeats. Equal entries are not always repeated.

Key:
[1] = target: T1, TAAR1 (Homo sapiens, UniProt Q96RJ0); assay: Intrinsic activity, Hit Hunter cAMP assay; assay type: cell-based
T1 sequence (Q96RJ0 1-339): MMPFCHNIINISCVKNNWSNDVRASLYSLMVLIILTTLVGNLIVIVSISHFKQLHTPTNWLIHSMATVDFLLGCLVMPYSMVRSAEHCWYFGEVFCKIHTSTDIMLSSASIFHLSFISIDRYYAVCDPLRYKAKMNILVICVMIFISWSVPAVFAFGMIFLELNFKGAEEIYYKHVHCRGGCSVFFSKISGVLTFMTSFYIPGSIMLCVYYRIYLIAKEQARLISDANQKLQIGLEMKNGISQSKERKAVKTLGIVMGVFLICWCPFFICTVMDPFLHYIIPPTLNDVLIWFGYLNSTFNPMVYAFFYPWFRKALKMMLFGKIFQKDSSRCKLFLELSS
Procedure: The intrinsic activity study at cells with overexpression of TAAR1 (Eurofins, cat. No. 95-0173C2) was carried out at Eurofins Discoveries (Fremont, USA) using the Hit Hunter cAMP method. This assay monitors the activation of a GPCR via Gi and Gs secondary messenger signaling in a homogenous, non-imaging assay format using a technology developed by DiscoverX called Enzyme Fragment Complementation (EFC) with β-galactosidase (β-Gal) as the functional reporter. The enzyme is split into two complementary portions: EA for Enzyme Acceptor and ED for Enzyme Donor. ED is fused to cAMP and in the assay competes with cAMP generated by cells for binding to a cAMP-specific antibody. Active β-Gal is formed by complementation of exogenous EA to any unbound EDcAMP.
cAMP Hunter cell lines were expanded from freezer stocks according to standard procedures. Cells were seeded in a total volume of 20 µL into white-walled, 384-well microplates and incubated at 37 ℃ for the appropriate time prior to testing. For agonist determination, cells were incubated with a sample to induce a response. Media was aspirated from cells and replaced with 15 µL 2:1 HBSS/10 mM Hepes:cAMP XS + Ab reagent. Intermediate dilution of sample stocks was performed to generate 4X samples in assay buffer. 5 µL of 4 × sample was added to cells and incubated at 37 ℃ or room temperature for 30 or 60 min. Vehicle concentration was 1%. […] Microplates were read following signal generation with a PerkinElmer Envision instrument for chemiluminescent signal detection.

[2] = Obesity induced with a high-fat diet: body weight; assay type: in vivo, rat; conditions: for effect on body weight (in words): vs obese control; for body weight of rat in g in particular day / change of body weight: hight-fat diet; for change of body weight: individual rats
Procedure: The experiments were carried out on male Wistar rats ([…]). Initial body weight was: 140–160 g obesity model or 190–220 g rats in which the obesity model was not induced. The animals were housed in pairs in plastic cages in constant temperature facilities exposed to a light–dark cycle; water and food were available ad libitum. The control and experimental groups consisted of six-to-eight animals each. All experiments were carried out according to the guidelines of the Jagiellonian University Animal Use and Care Committee and were approved for realization (Permissions No. 54/2012 and No. 128/2017).
(§1) Male Wistar rats were housed in pairs and fed a high-fat diet consisting of a 40% fat blend (Labofeed B with 40% lard, Morawski, Manufacturer Feed, Poland) for 14 weeks, with water available ad libitum. Control rats were fed a standard diet (Labofeed B, Morawski Manufacturer Feed, Poland). After 10 weeks, rats with obesity-induced via their diet were randomly divided into three equal groups that had the same mean body weight and were treated ip with test compounds at doses of 2 or 5 mg/kg b.w./day (high-fat diet + 4OHGuanabenz) or control group: vehicle–water 0.3 ml/kg (high-fat diet + vehicle = obesity control group) once a day in the morning between 9:00 AM and 10:00 AM for 25 days. Control rats were maintained on a standard diet, with ip administration of vehicle – water (standard diet + vehicle = control group).
(§2) The high-fat diet contained 550 kcal and the standard diet 280 kcal per 100 g.

[3] = Food intake of rats fed a high-fat diet; assay type: in vivo, rat; conditions: for food intake: high-fat diet, groups (cages) 1-3
Procedure: as §1, §2
Food intake was measured three times a week, immediately before drug administration. In this target, food was provided to the animals in a certain amount (100 g/cage). The weight of food was measured using dedicated scale (WPT 1C, RADWAG Wagi Elektroniczne, Poland). Next, the total amount of food that the animals had not eaten during that period of time was collected from each cage and weighed, and then, the data were recorded. The next portion of food was subsequently weighed before serving, and so on.

[4] = 5 mg/kg b.w., i.p.; cited from earlier work
[5] = 5 mg/kg b.w., i.p.; cited from earlier work; remark: listed apart in the source
[6] = 5 mg/kg b.w., i.p.; cited from earlier work; remark: listed apart in the source

With `Cl.N=C(N)NN=Cc1c(Cl)cc(O)cc1Cl` [4-OH-Guanabenz, 2-[(2,6-Dichloro-4-hydroxyphenyl)methylene]hydrazinecarboximidamide Hydrochloride] the “Intrinsic activity at TAAR1 (in words)” value [1] was “weak agonistic activity”, the EC50 ([1]; agonist, tested up to 10^–4 M, response at 10^–2 and 10^–1 M assumed 90–100% of tyramine, read-out: EC50 calculated after computer simulation) was 331 µM and the “Average Value (raw signal)” value ([1]; cAMP, Agonist, Conc(M) 1e-6) was 980.00. For the same compound, the “Value 1 / Value 2 (raw signal)” value ([1]; cAMP, Agonist, Conc(M) 1e-6) was 960 and 1000, the “Average Value (raw signal)” value ([1]; cAMP, Agonist, Conc(M) 1e-5) was 1140.00 and the “Value 1 / Value 2 (raw signal)” value ([1]; cAMP, Agonist, Conc(M) 1e-5) was 1080 and 1200. For the same compound, the “Average Value (raw signal)” value ([1]; cAMP, Agonist, Conc(M) 0.0001) was 2200.00, the “Value 1 / Value 2 (raw signal)” value ([1]; cAMP, Agonist, Conc(M) 0.0001) was 2200 and the “% Efficacy (of the full agonist tyramine)” value ([1]; cAMP, Agonist, Conc(M) 0.0001 (10^–4 M)) was 23.1%. For the same compound, the Emax at 100 µM ([1]; cAMP, Agonist, Conc(M) 0.0001 (10^–4 M), read-out: % Efficacy (of the full agonist tyramine)) was 23%, the “Intrinsic activity at TAAR1” value ([1]; summary table) was “+” and the “effect on body weight (in words)” value ([2]; high-fat diet rats, 2 mg/kg b.w. ip, 25 days) was “did not cause weight loss, but significantly reduced weight gain”. The “weight loss compared to the baseline weight before treatment” value ([2]; high-fat diet rats, 5 mg/kg b.w. ip once a day, 25 days) was “approximately 14.8%”, the “effect on body weight (in words)” value ([2]; high-fat diet rats, 5 mg/kg b.w. ip, 25 days) was “significant decrease in body weight” and the “body weight of rat in g in particular day” value (from here on “body weight of rat in g”) ([2]; 2mg/kg, day 1, individual rats, 2 mg/kg) was 405 g (3×) and 415 g and 410 g (2×). For the same compound, the “body weight of rat in g” value ([2]; 2mg/kg, day 3, individual rats, 2 mg/kg) was 405 g (2×) and 410 g and 414 g (2×) and 406 g, the “body weight of rat in g” value ([2]; 2mg/kg, day 5, individual rats, 2 mg/kg) was 409 g (2×) and 411 g and 413 g (2×) and 415 g and the “body weight of rat in g” value ([2]; 2mg/kg, day 7, individual rats, 2 mg/kg) was 408 g (2×) and 414 g and 412 g (2×) and 416 g. For the same compound, the “body weight of rat in g” value ([2]; 2mg/kg, day 9, individual rats, 2 mg/kg) was 406 g (2×) and 414 g and 415 g (2×) and 422 g, the “body weight of rat in g” value ([2]; 2mg/kg, day 11, individual rats, 2 mg/kg) was 412 g (2×) and 413 g and 417 g (2×) and 423 g and the “body weight of rat in g” value ([2]; 2mg/kg, day 13, individual rats, 2 mg/kg) was 409 g (2×) and 418 g and 414 g (2×) and 425 g. The “body weight of rat in g” value ([2]; 2mg/kg, day 15, individual rats, 2 mg/kg) was 410 g (2×) and 422 g and 401 g (2×) and 428 g, the “body weight of rat in g” value ([2]; 2mg/kg, day 17, individual rats, 2 mg/kg) was 412 g (2×) and 422 g and 403 g (2×) and 430 g and the “body weight of rat in g” value ([2]; 2mg/kg, day 19, individual rats, 2 mg/kg) was 412 g (2×) and 424 g and 407 g (2×) and 433 g. For the same compound, the “body weight of rat in g” value ([2]; 2mg/kg, day 21, individual rats, 2 mg/kg) was 415 g (2×) and 429 g and 412 g (2×) and 434 g, the “body weight of rat in g” value ([2]; 2mg/kg, day 23, individual rats, 2 mg/kg) was 408 g (2×) and 434 g and 415 g (2×) and 435 g and the “body weight of rat in g” value ([2]; 2mg/kg, day 25, individual rats, 2 mg/kg) was 405 g (2×) and 432 g and 415 g (2×) and 439 g. For the same compound, the “change of body weight” value ([2]; 2mg/kg) was 34 g/25days and 5 g/25days and 0 g/25days and 17 g/25days, the “body weight of rat in g” value ([2]; 5mg/kg, day 1, individual rats, 5 mg/kg) was 378 g and 415 g and 418 g and 409 g and 381 g and 457 g and the “body weight of rat in g” value ([2]; 5mg/kg, day 3, individual rats, 5 mg/kg) was 367 g and 412 g and 410 g and 387 g and 366 g and 443 g. For the same compound, the “body weight of rat in g” value ([2]; 5mg/kg, day 5, individual rats, 5 mg/kg) was 358 g and 396 g and 405 g and 374 g and 360 g and 427 g, the “body weight of rat in g” value ([2]; 5mg/kg, day 7, individual rats, 5 mg/kg) was 344 g and 387 g and 385 g and 364 g and 347 g and 411 g and the “body weight of rat in g” value ([2]; 5mg/kg, day 9, individual rats, 5 mg/kg) was 339 g and 377 g and 376 g and 357 g and 340 g and 394 g. The “body weight of rat in g” value ([2]; 5mg/kg, day 11, individual rats, 5 mg/kg) was 335 g and 372 g and 373 g and 350 g and 340 g and 388 g, the “body weight of rat in g” value ([2]; 5mg/kg, day 13, individual rats, 5 mg/kg) was 326 g and 364 g and 373 g and 348 g and 336 g and 386 g and the “body weight of rat in g” value ([2]; 5mg/kg, day 15, individual rats, 5 mg/kg) was 327 g and 363 g and 377 g and 350 g and 334 g and 384 g. The “body weight of rat in g” value ([2]; 5mg/kg, day 17, individual rats, 5 mg/kg) was 326 g and 362 g and 384 g and 348 g and 331 g and 386 g, the “body weight of rat in g” value ([2]; 5mg/kg, day 19, individual rats, 5 mg/kg) was 327 g and 356 g and 377 g (2×) and 349 g and 333 g and the “body weight of rat in g” value ([2]; 5mg/kg, day 21, individual rats, 5 mg/kg) was 314 g and 353 g and 370 g and 334 g and 328 g and 367 g. The “body weight of rat in g” value ([2]; 5mg/kg, day 23, individual rats, 5 mg/kg) was 310 g and 355 g and 373 g and 342 g and 328 g and 365 g, the “body weight of rat in g” value ([2]; 5mg/kg, day 25, individual rats, 5 mg/kg) was 315 g and 357 g and 378 g and 348 g and 325 g and 370 g and the “change of body weight” value ([2]; 5mg/kg) was -56 g/25days and -87 g/25days and -63 g/25days and -58 g/25days and -40 g/25days and -61 g/25days. The “effect on calories consumed (in words)” value ([3]; high-fat diet rats, ip at both doses (2 or 5 mg/kg b.w.), vs obesity control group) was “reduced the number of calories consumed”, the food intake ([3]; 2mg/kg, week 1, 2 mg/kg) was 995.5 kcal/2rats and 924 kcal/2rats and 960 kcal/2rats and the food intake ([3]; 2mg/kg, week 2, 2 mg/kg) was 891 kcal/2rats and 654.5 kcal/2rats and 772.5 kcal/2rats. The food intake ([3]; 2mg/kg, week 3, 2 mg/kg) was 880 kcal/2rats and 863.5 kcal/2rats and 871.5 kcal/2rats, the food intake ([3]; 5mg/kg, week 1, 5 mg/kg) was 363 kcal/2rats and 478.5 kcal/2rats and 346.5 kcal/2rats and the food intake ([3]; 5mg/kg, week 2, 5 mg/kg) was 561 kcal/2rats and 621.5 kcal/2rats and 693 kcal/2rats. The food intake ([3]; 5mg/kg, week 3, 5 mg/kg) was 599.5 kcal/2rats and 594 kcal/2rats and 665.5 kcal/2rats.

For `N=C(N)N/N=C/c1c(Cl)cccc1Cl` [Guanabenz], the Spontaneous activity [4] is given as “↓ [17]”, the Plasma cholesterol level [5] is given as “↑ [17]” and the Plasma glucose level [5] is given as “↓ [17]”. The Plasma triglyceride level [5] was “↓ [17]” and the “Blood pressure after one administration” value [6] was “Change [17]”.
